Assay results reported in US20230146455A1, “TREATMENT OF INFLAMMATORY DISEASES WITH PEPTIDES AND PHARMACEUTICAL COMPOSITIONS” (Yuyu Pharma, Inc., priority 2020, published 2023).
Several values for one entry are separate records, joined by “and”; a condition that tells them apart may be missing. Identical values can stand only once. Where a SMILES comes first, the peptide text is derived from it. [ ]: non-standard residue; d: D form. Hyp = O=C(O)[C@@H]1C[C@@H](O)CN1

Legend:
TNF-alpha = assay: Example 9 Luminex, LPS hPBMCs: TNF-alpha; format: cell-based, human
Experimental: (§1) Treatment Human PBMCs were pretreated with YY-101, YDE-011 and YDE-043 or reference compound; Xiidra® at various concentration (ranging from 1 nM to 100 uM) for 2 h before stimulation. An equal volume of 0.5% DMSO was used as a vehicle control. Then, the cells were treated with LPS at 5 ug/ml. The supernatants from treated cells were harvested at 24 h and placed in a 96 well for Luminex cytokine & chemokine profiling using a Luminex 200 multiplex assay (Luminex; R&D system, USA).
(§2) The main study arm with triplicate wells per group in a 24-well plate: • 1. Blank • 2. PBMC: 0.5% DMSO • 3. PBMC+LPS (5 ug/ml) • 4. PBMC+YY-101 100 uM • 5. PBMC+YY-101 10 uM • 6. PBMC+YY-101 1 uM • 7. PBMC+YY-101 0.1 uM • 8. PBMC+YY-101 0.01 uM • 9. PBMC+LPS (5 ug/ml)+Xiidra®100 uM • 10. PBMC+LPS (5 ug/ml)+Xiidra® 10 uM • 11. PBMC+LPS (5 ug/ml)+Xiidra® 1 uM • 12. PBMC+LPS (5 ug/ml)+Xiidra®0.1 uM • 13. PBMC+LPS (5 ug/ml)+Xiidra®0.01 uM • 14. PBMC+LPS (5 ug/ml)+Xiidra®0.001 uM • 15. PBMC+LPS (5 ug/ml)+YY-101 100 uM • 16. PBMC+LPS (5 ug/ml)+YY-101 10 uM • 17. PBMC+LPS (5 ug/ml)+YY-101 1 uM • 18. PBMC+LPS (5 ug/ml)+YY-101 0.1 uM • 19. PBMC+LPS (5 ug/ml)+YY-101 0.01 uM • 20. PBMC+LPS (5 ug/ml)+YY-101 0.001 uM • 21. PBMC+LPS (5 ug/ml)+YDE-011 100 uM • 22. PBMC+LPS (5 ug/ml)+YDE-011 10 uM • 23. PBMC+LPS (5 ug/ml)+YDE-011 1 uM • 24. PBMC+LPS (5 ug/ml)+YDE-011 0.1 uM • 25. PBMC+LPS (5 ug/ml)+YDE-011 0.01 uM • 26. PBMC+LPS (5 ug/ml)+YDE-011 0.001 uM • 27. PBMC+LPS (5 ug/ml)+YDE-043 100 uM • 28. PBMC+LPS (5 ug/ml)+YDE-043 10 uM • 29. PBMC+LPS (5 ug/ml)+YDE-043 1 uM • 30. PBMC+LPS (5 ug/ml)+YDE-043 0.1 uM • 31. PBMC+LPS (5 ug/ml)+YDE-043 0.01 uM • 32. PBMC+LPS (5 ug/ml)+YDE-043 0.001 uM
(§3) Multiplex assay was used to measure 30 cytokines and chemokines. The 1:2, 1:10 and 1:200 diluted cell supernatant and serial dilution of the standard were dispensed into a 96 well plate at 50 ul/well. Then, the pre-mixed cocktail of antibody-coated magnetic beads was dispensed at 50 ul/well and incubated at room temperature for 2 h in a horizontal orbital microplate shaker at 800±500 rpm. The beads were washed using a magnetic device to prevent loss. The biotin-antibody was dispensed in 50 ul of each well and incubated at room temperature for 1 h in a shaker at 800±500 rpm. After washing, streptavidin-PE was added at 50 ul/well and incubated at room temperature for 30 min in a shaker under the same conditions. Finally, after washing, wash buffer (100 ul/well) was added to the plate and incubated in a shaker for 2 min. The Luminex™ 200 setting were set according to the manufacturer's protocol. The data was calculated with a standard five-parameter logistic nonlinear regression analysis of the data (xPonent software 4.2, USA). The levels of cytokine/chemokine are normalized to the live cell counts (1×10^5 cells/mL) and presented as concentrations per mL (pg/mL or ng/mL).

CCL3/MIP-1 alpha = assay: Example 9 Luminex, LPS hPBMCs: CCL3/MIP-1 alpha; format: cell-based, human
Experimental: as §1, §2, §3

[1] = PBMC + LPS(5 ug/ml) + test article 0.001 uM, Mean
[2] = PBMC + LPS(5 ug/ml) + test article 0.001 uM, individual replicates (1st, 2nd, 3rd)
[3] = PBMC + LPS(5 ug/ml) + test article 0.01 uM, Mean
[4] = PBMC + LPS(5 ug/ml) + test article 0.01 uM, individual replicates (1st, 2nd, 3rd)
[5] = PBMC + LPS(5 ug/ml) + test article 0.1 uM, Mean
[6] = PBMC + LPS(5 ug/ml) + test article 0.1 uM, individual replicates (1st, 2nd, 3rd)
[7] = PBMC + LPS(5 ug/ml) + test article 1 uM, Mean
[8] = PBMC + LPS(5 ug/ml) + test article 1 uM, individual replicates (1st, 2nd, 3rd)
[9] = PBMC + LPS(5 ug/ml) + test article 10 uM, Mean
[10] = PBMC + LPS(5 ug/ml) + test article 10 uM, individual replicates (1st, 2nd, 3rd)
[11] = PBMC + LPS(5 ug/ml) + test article 100 uM, Mean
[12] = PBMC + LPS(5 ug/ml) + test article 100 uM, individual replicates (1st, 2nd, 3rd)
[13] = PBMC + LPS(5 ug/ml) + test article 0.001 uM, individual replicates
[14] = PBMC + LPS(5 ug/ml) + test article 0.01 uM, individual replicates
[15] = PBMC + LPS(5 ug/ml) + test article 0.1 uM, individual replicates
[16] = PBMC + LPS(5 ug/ml) + test article 1 uM, individual replicates
[17] = PBMC + LPS(5 ug/ml) + test article 10 uM, individual replicates
[18] = PBMC + LPS(5 ug/ml) + test article 100 uM, individual replicates

In the case of `CC(C)C[C@H](NC(=O)CNC(=O)[C@H](CC(C)C)NC(=O)[C@H](CCC(N)=O)NC(=O)CNC(=O)[C@@H]1C[C@@H](O)CN1)C(=O)N[C@@H](C)C(=O)NCC(=O)N1CCC[C@H]1C(=O)N[C@@H](CCCCN)C(=O)O` [YDE-011] (H-[Hyp]GQLGLAGPK-OH), the “TNF-alpha Concentration” value (TNF-alpha; [1]) is reported as 1257.3 pg/mL, the TNF-alpha conc/live cell (TNF-alpha; [1]) is reported as 237.4 pg/10^5 and the “TNF-alpha Concentration” value (TNF-alpha; [2]) is reported as 1245.3 pg/mL and 1240.9 pg/mL and 1285.6 pg/mL. For the same compound, the TNF-alpha conc/live cell (TNF-alpha; [2]) was 276.7 pg/10^5 and 213.9 pg/10^5 and 221.7 pg/10^5, the “TNF-alpha Concentration” value (TNF-alpha; [3]) was 1293.5 pg/mL and the TNF-alpha conc/live cell (TNF-alpha; [3]) was 222.4 pg/10^5. The “TNF-alpha Concentration” value (TNF-alpha; [4]) was 1285.6 pg/ml (2×) and 1309.5 pg/ml, the TNF-alpha conc/live cell (TNF-alpha; [4]) was 207.4 pg/10^5 and 252.1 pg/10^5 and 207.9 pg/10^5 and the “TNF-alpha Concentration” value (TNF-alpha; [5]) was 1269.7 pg/mL. For the same compound, the TNF-alpha conc/live cell (TNF-alpha; [5]) was 223.0 pg/10^5, the “TNF-alpha Concentration” value (TNF-alpha; [6]) was 1273.7 pg/mL and 1276.6 pg/mL and 1258.7 pg/mL and the TNF-alpha conc/live cell (TNF-alpha; [6]) was 193.0 pg/10^5 and 255.3 pg/10^5 and 220.8 pg/10^5. The “TNF-alpha Concentration” value (TNF-alpha; [7]) was 1256.8 pg/mL, the TNF-alpha conc/live cell (TNF-alpha; [7]) was 250.5 pg/10^5 and the “TNF-alpha Concentration” value (TNF-alpha; [8]) was 1282.6 pg/mL and 1208.1 pg/mL and 1279.6 pg/mL. The TNF-alpha conc/live cell (TNF-alpha; [8]) was 233.2 pg/10^5 and 251.7 pg/10^5 and 266.6 pg/10^5, the “TNF-alpha Concentration” value (TNF-alpha; [9]) was 1330.4 pg/mL and the TNF-alpha conc/live cell (TNF-alpha; [9]) was 253.3 pg/10^5. For the same compound, the “TNF-alpha Concentration” value (TNF-alpha; [10]) was 1399.2 pg/mL and 1255.8 pg/mL and 1336.4 pg/mL, the TNF-alpha conc/live cell (TNF-alpha; [10]) was 259.1 pg/10^5 and 216.5 pg/10^5 and 284.3 pg/10^5 and the “TNF-alpha Concentration” value (TNF-alpha; [11]) was 968.4 pg/mL. For the same compound, the TNF-alpha conc/live cell (TNF-alpha; [11]) was 159.6 pg/10^5, the “TNF-alpha Concentration” value (TNF-alpha; [12]) was 985.6 pg/mL and 960.5 pg/mL and 959.0 pg/mL and the TNF-alpha conc/live cell (TNF-alpha; [12]) was 161.6 pg/10^5 and 157.5 pg/10^5 and 159.8 pg/10^5. The Concentration (CCL3/MIP-1 alpha; [1]) was 7478.7 pg/mL, the conc/live cell (CCL3/MIP-1 alpha; [1]) was 1414.4 pg/10^5 and the Concentration (CCL3/MIP-1 alpha; [13]) was 7525.9 pg/mL and 7321.9 pg/mL and 7588.4 pg/mL. For the same compound, the conc/live cell (CCL3/MIP-1 alpha; [13]) was 1672.4 pg/10^5 and 1262.4 pg/10^5 and 1308.3 pg/10^5, the Concentration (CCL3/MIP-1 alpha; [3]) was 7584.1 pg/mL and the conc/live cell (CCL3/MIP-1 alpha; [3]) was 1304.0 pg/10^5. For the same compound, the Concentration (CCL3/MIP-1 alpha; [14]) was 7600.8 pg/mL and 7525.9 pg/mL and 7625.5 pg/mL, the conc/live cell (CCL3/MIP-1 alpha; [14]) was 1225.9 pg/10^5 and 1475.7 pg/10^5 and 1210.4 pg/10^5 and the Concentration (CCL3/MIP-1 alpha; [5]) was 7103.9 pg/mL. For the same compound, the conc/live cell (CCL3/MIP-1 alpha; [5]) was 1250.7 pg/10^5, the Concentration (CCL3/MIP-1 alpha; [15]) was 6974.8 pg/mL and 7334.8 pg/mL and 7002.2 pg/mL and the conc/live cell (CCL3/MIP-1 alpha; [15]) was 1056.8 pg/10^5 and 1467.0 pg/10^5 and 1228.5 pg/10^5. The Concentration (CCL3/MIP-1 alpha; [7]) was 7537.7 pg/mL, the conc/live cell (CCL3/MIP-1 alpha; [7]) was 1505.0 pg/10^5 and the Concentration (CCL3/MIP-1 alpha; [16]) was 7399.2 pg/mL and 7613.2 pg/mL and 7600.8 pg/mL. For the same compound, the conc/live cell (CCL3/MIP-1 alpha; [16]) was 1345.3 pg/10^5 and 1586.1 pg/10^5 and 1583.5 pg/10^5, the Concentration (CCL3/MIP-1 alpha; [9]) was 7734.7 pg/mL and the conc/live cell (CCL3/MIP-1 alpha; [9]) was 1473.3 pg/10^5. The Concentration (CCL3/MIP-1 alpha; [17]) was 7962.5 pg/mL and 7373.5 pg/mL and 7868.0 pg/mL, the conc/live cell (CCL3/MIP-1 alpha; [17]) was 1474.5 pg/10^5 and 1271.3 pg/10^5 and 1674.0 pg/10^5 and the Concentration (CCL3/MIP-1 alpha; [11]) was 7968.8 pg/mL. For the same compound, the conc/live cell (CCL3/MIP-1 alpha; [11]) was 1313.3 pg/10^5, the Concentration (CCL3/MIP-1 alpha; [18]) was 8238.4 pg/mL and 8067.3 pg/mL and 7600.8 pg/mL and the conc/live cell (CCL3/MIP-1 alpha; [18]) was 1350.6 pg/10^5 and 1322.5 pg/10^5 and 1266.8 pg/10^5.
